Test results from publication PMC5809414, “Physician-initiated clinical study of limb ulcers treated with a functional peptide, SR-0379: from discovery to a randomized, double-blind, placebo-controlled trial” (NPJ Aging and Mechanisms of Disease, 2018).
Where “and” joins values, the source holds several entries; their conditions need not be identical. Equal values may be shown once. Where a SMILES comes first, the peptide text is derived from it. [ ]: non-standard residue; d: D form.

Columns and labels:
[1] = tested on: endothelial cell and fibroblast; settings: in vitro; cited from earlier work
Source text: SR-0379 also promoted angiogenesis, granulation tissue formation, and endothelial cell and fibroblast proliferation in vitro. In this study, we conducted a multi-center, double-blinded, randomized phase I/IIa clinical study to evaluate the safety, efficacy, and pharmacokinetics of SR-0379 for the treatment of leg ulcers.

leg ulcers = assay: Phase I/IIa randomized, double-blind, placebo-controlled study: wound size, closure, DESIGN-R, overall improvement; assay type: in vivo, human; settings: for skin ulcer rate of reduction at the final evaluation (4th week or discontinuation): vs pre-treatment wound size, mean ± SD; for skin ulcer rate of reduction at the final evaluation (4th week or discontinuation) / Overall improvement, Mild: number of patients / Overall improvement, Moderate: number of patients / Overall improvement, No change: number of patients / Overall improvement, Worse: number of patients / Skin ulcer size, 2 weeks after treatment (mean ± SD) / Skin ulcer size, Post-treatment (mean ± SD) / Wound closure, Yes: number of patients (%) / DESIGN-R total score, Post-mean (SD) / Overall improvement, Significant: number of patients: n = 3; for DESIGN-R total score, Pre-mean (SD): n = 3, baseline; for DESIGN-R total score, Pre-mean (SD) / DESIGN-R total score, Post-mean (SD): depth excluded, 0 (healed) to 66; for Overall improvement, Significant: number of patients: evaluation by investigators
Procedure: GMP-grade SR-0379 peptide was generated by the American Peptide Company (Torrance, CA, USA). The peptide was dissolved in a physiological salt solution, and spray-type containers were charged with 10 mL of SR-0379 solution under GMP conditions by Nagase Medical Co. Ltd. (Itami, Hyogo, Japan). A total of 0.05 mL of SR-0379 solution was administered per spray using this container. According to the protocol, each patient received 0.25 mL of SR-0379 solution over five sprays once per day for 28 days.
The clinical trial was conducted as an investigator-initiated, phase I/IIa, randomized, double-blind, placebo-controlled trial at five hospitals (Osaka University Hospital, Osaka; Chiba University Hospital, Chiba; Asano-Kanamachi Clinic, Tokyo; Medical Plaza Shinozakieki Nishiguchi, Tokyo; and Kasukabe Chuo General Hospital, Saitama) in Japan. Twelve patients were randomized into four groups and treated with 0.02%, 0.1%, or 0.5% SR-0379 or placebo treatment. The inclusion criteria for this clinical trial were: (1) adult (age≧20 years), (2) a diagnosis of diabetic ulcer or limb ulcer (artery or venous ulcer); and (3) wound size <6 cm in diameter. Exclusion criteria is (1) infection to be cured with antibiotics, (2) deep ulcer with reaching bone tissue, (3) skin ulcer with malignant tumor, (4) severe edema around skin ulcer, (5) patients with malignant tumor, (6) patients with severe heart failure, (7) patients with severe liver, kidney, and blood dysfunction, (8) malnutrition (serum albumin ≦2 g/dL), (9) poor general condition due to severe systemic infection, (10) poor control of hyperglycemia (HbA1c ≧9.0%), (11) pregnant women, and men or women who disagreed to avoid pregnancy during clinical trial period, (12) patients who changed from an oral to an intravenous drug to regulate blood flow (i.e., prostaglandin E1, prostacyclin I2) from 2 weeks before SR-0379 or placebo treatment, (13) surgical procedure for skin ulcer from 2 weeks before SR-0379 or placebo treatment, (14) attendance to other clinical trial from 12 weeks before SR-0379 or placebo treatment, and (15) judgment as an inappropriate patient by principle investigator. The study protocol was approved by the institutional review board of each hospital. Patients gave written informed consent before enrollment.
Twelve patients were randomized into four groups and treated with 0.02%, 0.1,% or 0.5% SR-0379 or placebo treatment. The allocation was generated by a computer program before starting the initial enrollment, and the allocation coordinator concealed the allocation information until the last patient finished. The placebo drug was indistinguishable in terms of appearance. The trial drugs were distributed to each hospital according to the allocation schedule for each patient. All study personnel and patients were masked to treatment group allocation.
SR-0379 (0.02%, 0.1%, and 0.5%) or placebo was topically administered after cleaning with soap once per day for 28 days. After treatment, the wound was covered with a piece of gauze. […] No topical wound healing drugs were used in combination with SR-0379 or placebo for the same skin ulcer, and the topical use of FGF2 (trafermin) was prohibited starting 2 weeks before treatment through the final treatment.
Upon study entry, clinical assessments, skin ulcer evaluations, blood and urine tests, chest radiographs, and ECGs were performed 1 week before treatment. Prior to the first treatment, clinical assessments and skin ulcer evaluations were performed, and plasma SR-0379 levels were measured at 15 and 60 min after the first treatment. After treatment, clinical assessments, skin ulcer evaluation, blood and urine tests, and ECGs were performed, and plasma SR-0379 levels were measured at 15 and 60 min after the final treatment. During the follow-up period (1 week after treatment), patients received appropriate treatment, including FGF2 (trafermin). […]

## CC[C@H](C)[C@H](NC(=O)[C@H](CC(C)C)NC(=O)[C@H](CCCCN)NC(=O)[C@H](CC(C)C)NC(=O)[C@@H](N)CCSC)C(=O)N[C@@H](Cc1ccccc1)C(=O)N[C@@H](CC(C)C)C(=O)N[C@@H](Cc1c[nH]cn1)C(=O)N[C@@H](CCCNC(=N)N)C(=O)N[C@@H](CC(C)C)C(=O)N[C@@H](CCCCN)C(=O)N[C@@H](CCCNC(=N)N)C(=O)N[C@@H](CCSC)C(=O)N[C@@H](CCCNC(=N)N)C(=O)N[C@@H](CCCCN)C(=O)N[C@@H](CCCNC(=N)N)C(=O)N[C@@H](CC(C)C)C(=O)N[C@H](CCCCN)C(=O)N[C@@H](CCCNC(=N)N)C(=O)N[C@@H](CCCCN)C(=O)O [SR-0379] (H-MLKLIFLHRLKRMRKRL[dK]RK-OH; N-terminus and C-terminus assumed)
[1]
  angiogenesis, granulation tissue formation, and endothelial cell and fibroblast proliferation: promoted
Leg ulcers; 0.02% SR-0379, 2 weeks after treatment
  Size reduction (percent decrease) of skin ulcers, mean: -3.157%
Leg ulcers; 0.02% SR-0379, diabetic ulcer, foot (lateral malleolus), Werner Syndrome patient
  Size decrease, single patient: 61.45%
Leg ulcers; 0.02% SR-0379, diabetic ulcer, low leg
  Size decrease, single patient: 75.00%
Leg ulcers; 0.02% SR-0379, ischemic ulcer, finger
  Size decrease, single patient: -2.27%
Leg ulcers; 0.02% SR-0379 topical once per day for 28 days
  skin ulcer rate of reduction at the final evaluation (4th week or discontinuation): 44.73 ± 41.26% and 44.727%
Leg ulcers; 0.02% group
  Overall improvement, Mild: number of patients: 1
  Overall improvement, Moderate: number of patients: 1
  Overall improvement, No change: number of patients: 0
  Overall improvement, Worse: number of patients: 1
  Skin ulcer size, 2 weeks after treatment (mean ± SD): 0.777 ± 0.783
  Skin ulcer size, Post-treatment (mean ± SD): 0.563 ± 0.698
  Wound closure, Yes: number of patients (%): 0 (0%)
  DESIGN-R total score, Pre-mean (SD): 9.3 (4.7)
  DESIGN-R total score, Post-mean (SD): 4.3 (1.5)
  Overall improvement, Significant: number of patients: 1
Leg ulcers; 0.1% SR-0379, 2 weeks after treatment
  Size reduction (percent decrease) of skin ulcers, mean: 38.36%
Leg ulcers; 0.1% SR-0379, diabetic ulcer, foot (heel), Werner Syndrome patient
  Size decrease, single patient: 34.93%
Leg ulcers; 0.1% SR-0379, diabetic ulcer, foot, patient with skin abrasion
  Size decrease, single patient: 87.50%
Leg ulcers; 0.1% SR-0379, ischemic ulcer, finger
  Size decrease, single patient: 82.32%
Leg ulcers; 0.1% SR-0379 topical once per day for 28 days
  skin ulcer rate of reduction at the final evaluation (4th week or discontinuation): 68.25 ± 28.98% and 68.247%
Leg ulcers; 0.1% group
  Overall improvement, Mild: number of patients: 1
  Overall improvement, Moderate: number of patients: 1
  Overall improvement, No change: number of patients: 0
  Overall improvement, Worse: number of patients: 0
  Skin ulcer size, 2 weeks after treatment (mean ± SD): 0.320 ± 0.381
  Skin ulcer size, Post-treatment (mean ± SD): 0.473 ± 0.488
  Wound closure, Yes: number of patients (%): 0 (0%)
  DESIGN-R total score, Pre-mean (SD): 9.0 (1.0)
  DESIGN-R total score, Post-mean (SD): 5.3 (4.0)
  Overall improvement, Significant: number of patients: 1
Leg ulcers; 0.5% SR-0379, 2 weeks after treatment
  Size reduction (percent decrease) of skin ulcers, mean: 14.443%
Leg ulcers; 0.5% SR-0379, diabetic ulcer, foot, complete ulcer closure
  Size decrease, single patient: 100%
Leg ulcers; 0.5% SR-0379, venous ulcer, low leg
  Size decrease, single patient: 14.84%
Leg ulcers; 0.5% SR-0379 topical once per day for 28 days
  skin ulcer rate of reduction at the final evaluation (4th week or discontinuation): 71.61 ± 49.17% and 71.613%
Leg ulcers; 0.5% group
  Overall improvement, Mild: number of patients: 0
  Overall improvement, Moderate: number of patients: 3
  Overall improvement, No change: number of patients: 0
  Overall improvement, Worse: number of patients: 0
  Skin ulcer size, 2 weeks after treatment (mean ± SD): 1.910 ± 3.179
  Skin ulcer size, Post-treatment (mean ± SD): 1.760 ± 3.048
  DESIGN-R total score, Pre-mean (SD): 12.0 (7.2)
  DESIGN-R total score, Post-mean (SD): 5.3 (5.1)
  Overall improvement, Significant: number of patients: 0
